Measurements reported in patent US9920012B2, “Indazole guanidine F1F0-ATPase inhibitors and therapeutic uses thereof” (Lycera Corporation, priority 2012, dated 2018).
Structures can show the parent of a compound that is named as a salt. Where two headings read alike, the source gives them in different places.

How the values were obtained:
F1F0-ATPase = target: T1, F1F0-ATPase (Bos taurus, UniProt P13621); assay: Inhibition of F1F0-ATPase activity in synthesizing ATP; format: biochemical; details: inhibition of ATP synthesis; detection limit IC50=16 μM; read-out: ATP Syn IC50
T1 construct: from tissue
Protocol: (§1) Exemplary compounds described in above Examples were tested for activity against F1F0-ATPase by measuring the ability of the compounds to inhibit ATP synthesis. In addition, the compounds were assessed for cytotoxicity in Ramos cells. Inhibition of F1F0-ATPase activity in synthesizing ATP and cytotoxicity in Ramos cells were measured according to the procedures described in K. M. Johnson et al. Chemistry & Biology 2005, 12, 485-496.

Ramos cells = assay: Cytotoxicity in Ramos cells; format: cell-based; details: detection limit EC50=16 μM, read-out: Ramos Cell EC50
Protocol: as §1

Row | IC50 (F1F0-ATPase) | SMILES | EC50 (Ramos cells; Homo sapiens) | EC50 (Ramos cells)
1 | < 5 µM | COC[C@H](C)N/C(=N/C(=O)c1ccc(F)c(F)c1)Nc1n[nH]c2cc(Cl)ccc12 [Compound 1, (S)-N-(((6-Chloro-1H-indazol-3-yl)amino)((1-methoxypropan-2-yl)amino)methylene)-3,4-difluorobenzamide] | < 5 µM | –
2 | < 5 µM | CCOCCNC(=NC(=O)c1cccc(Cl)c1)Nc1n[nH]c2cc(Cl)c(F)cc12 [Compound A-106] | < 5 µM | –
3 | 5 to 16 µM | CC(C)(C)N/C(=N/C(=O)c1ccc(F)c(F)c1)Nc1n[nH]c2cccnc12 [Compound A-45] | – | > 16 µM
4 | 5 to 16 µM | CC(C)CNC(=NC(=O)c1ccc(F)c(F)c1)Nc1n[nH]c2c(C(F)(F)F)cccc12 [Compound A-58] | 5 to 16 µM | –
5 | < 5 µM | CC(C)CN/C(=N/C(=O)c1ccc(F)c(F)c1)Nc1n[nH]c2cncc(Cl)c12 [Compound A-41] | – | < 5 µM
6 | 5 to 16 µM | CC(C)(C)N/C(=N/C(=O)c1ccc(O)cc1)Nc1n[nH]c2cc(F)ccc12 [Compound A-92] | – | < 5 µM
7 | < 5 µM | CCOCCNC(=NC(=O)c1cccc(Cl)c1)Nc1n[nH]c2cc(F)ccc12 [Compound A-99] | – | 5 to 16 µM
8 | < 5 µM | CC(C)CNC(=NC(=O)c1cccc(Cl)c1)Nc1n[nH]c2cc(F)ccc12 [Compound A-98] | – | < 5 µM
9 | < 5 µM | CC(C)CNC(=NC(=O)c1cccc(Cl)c1)Nc1n[nH]c2cc(Cl)c(F)cc12 [Compound A-105] | – | 5 to 16 µM
10 | > 16 µM | CCOCCN/C(=N/C(=O)c1cccc(Cl)c1)Nc1n[nH]c2cc(F)ccc12 [Compound A-86] | – | 5 to 16 µM
11 | < 5 µM | CC(C)N/C(=N/C(=O)c1ccc(F)c(F)c1)Nc1n[nH]c2c(F)cccc12 [Compound A-76] | – | < 5 µM
12 | < 5 µM | CC(C)(C)NC(=NC(=O)c1cccc(Cl)c1)Nc1n[nH]c2cc(Cl)c(F)cc12 [Compound A-104] | – | < 5 µM
13 | < 5 µM | CC(C)N/C(=N/C(=O)c1ccc(F)c(F)c1)Nc1n[nH]c2cc(C(F)(F)F)ccc12 [Compound A-10] | – | < 5 µM
14 | > 16 µM | O=C(/N=C(/Nc1cc(F)cc(Cl)c1)Nc1n[nH]c2cccc(F)c12)c1ccc(F)c(F)c1 [Compound A-113] | > 16 µM | –
15 | > 16 µM | CC(C)CN/C(=N/C(=O)c1ccc(F)c(F)c1)Nc1n[nH]c2ccccc12 [Compound A-35] | – | > 16 µM
16 | < 5 µM | CC(C)(C)N/C(=N/C(=O)c1ccc(F)c(F)c1)Nc1n[nH]c2cncc(Cl)c12 [Compound A-40] | – | < 5 µM
17 | > 16 µM | CC(C)(C)N/C(=N/C(=O)c1ccc(F)c(F)c1)Nc1n[nH]c2ncccc12 [Compound A-69] | – | > 16 µM
18 | < 5 µM | CC(C)(C)N/C(=N/C(=O)c1ccc(F)c(F)c1)Nc1n[nH]c2ccc(F)cc12 [Compound A-3] | – | 5 to 16 µM
19 | < 5 µM | O=C(/N=C(\Nc1n[nH]c2cc(C(F)(F)F)ccc12)NC1CCCC1)c1ccc(Cl)c(F)c1 [Compound A-19] | < 5 µM | –
20 | > 16 µM | CC(C)(C)N/C(=N/C(=O)c1ccc(F)c(F)c1)Nc1n[nH]c2cc(C(F)(F)F)ccc12 [Compound A-7] | – | < 5 µM
21 | 5 to 16 µM | COC[C@H](C)N/C(=N/C(=O)c1ccc(F)c(F)c1)Nc1n[nH]c2c(F)cccc12 [Compound A-74] | – | 5 to 16 µM
22 | > 16 µM | COCC(C)NC(=NC(=O)c1ccc(F)c(F)c1)Nc1n[nH]c2c(C(F)(F)F)cccc12 (stereo not shown) [Compound A-59] | > 16 µM | –
23 | < 5 µM | CCOCCN/C(=N/C(=O)c1ccc(Cl)c(F)c1)Nc1n[nH]c2cc(C(F)(F)F)ccc12 [Compound A-20] | – | > 16 µM
24 | < 5 µM | O=C(/N=C(/Nc1cc(F)cc(Cl)c1)Nc1n[nH]c2ccc(F)cc12)c1ccc(F)c(F)c1 [Compound A-112] | < 5 µM | –
25 | < 5 µM | COC[C@H](C)N/C(=N/C(=O)c1cccc(Cl)c1)Nc1n[nH]c2cc(Cl)ccc12 [Compound A-78] | – | < 5 µM
26 | < 5 µM | CC(C)CN/C(=N/C(=O)c1ccc(F)c(F)c1)Nc1n[nH]c2cc(Br)ccc12 [Compound A-68] | – | < 5 µM
27 | < 5 µM | COC[C@H](C)N/C(=N/C(=O)c1ccc(Cl)cc1)Nc1n[nH]c2cc(C(F)(F)F)ccc12 [Compound A-66] | – | < 5 µM

Row | IC50 (F1F0-ATPase) | SMILES | EC50 (Ramos cells; Homo sapiens) | EC50 (Ramos cells)
28 | 5 to 16 µM | CCOCCNC(=NC(=O)c1ccc(F)c(F)c1)Nc1n[nH]c2c(C(F)(F)F)cccc12 [Compound A-60] | > 16 µM | –
29 | > 16 µM | COC[C@H](C)N/C(=N/C(=O)c1ccc(Cl)cc1)Nc1nn(C)c2cc(C(F)(F)F)ccc12 [Compound A-115] | > 16 µM | –
30 | < 5 µM | CC(C)CN/C(=N/C(=O)c1ccc(F)c(F)c1)Nc1n[nH]c2c(O)ccc(F)c12 [Compound A-56] | – | < 5 µM
31 | < 5 µM | COC[C@H](C)N/C(=N/C(=O)c1ccc(F)c(F)c1)Nc1n[nH]c2ccc(C(F)(F)F)cc12 [Compound A-53] | – | > 16 µM
32 | 5 to 16 µM | CC1(CN/C(=N/C(=O)c2ccc(F)c(F)c2)Nc2n[nH]c3ccccc23)COC1 [Compound A-39] | – | > 16 µM
33 | > 16 µM | COCC(C)NC(=NC(=O)c1ccc(F)c(F)c1)Nc1n[nH]c2cncc(Cl)c12 (stereo not shown) [Compound A-43] | > 16 µM | –
34 | < 5 µM | CC(C)(C)N/C(=N/C(=O)c1ccc(F)c(F)c1)Nc1n[nH]c2cncc(F)c12 [Compound A-32] | – | 5 to 16 µM
35 | < 5 µM | CCOCCNC(=NC(=O)c1ccc(F)c(F)c1)Nc1n[nH]c2cc(Cl)c(F)cc12 [Compound A-102] | – | < 5 µM
36 | > 16 µM | CC(C)(O)CN/C(=N/C(=O)c1cccc(Cl)c1)Nc1n[nH]c2cc(F)ccc12 [Compound A-87] | – | > 16 µM
37 | < 5 µM | CCC(C)N/C(=N/C(=O)c1ccc(F)c(F)c1)Nc1n[nH]c2cc(C(F)(F)F)ccc12 (stereo not shown) [Compound A-9] | – | < 5 µM
38 | < 5 µM | CC(C)(O)CN/C(=N/C(=O)c1ccc(Cl)cc1)Nc1n[nH]c2cc(F)ccc12 [Compound 2, 4-Chloro-N-((6-fluoro-1H-indazol-3-ylamino)((2-hydroxy-2-methylpropyl)amino)methylene)benzamide] | > 16 µM | –
39 | < 5 µM | CC(C)(C)N/C(=N/C(=O)c1ccc(N2CCOCC2)nc1)Nc1n[nH]c2cc(C(F)(F)F)ccc12 [Compound A-23] | – | 5 to 16 µM
40 | 5 to 16 µM | COCC(C)NC(=NC(=O)c1ccc(F)c(F)c1)Nc1n[nH]c2c(Cl)cccc12 (stereo not shown) [Compound A-84] | > 16 µM | –
41 | 5 to 16 µM | COC[C@H](C)NC(=NC(=O)c1ccc(F)c(F)c1)Nc1nn(C(=O)[C@@H](N)C(C)C)c2cc(C(F)(F)F)ccc12 [Compound 6, N-(((1-((S)-2-Amino-3-methylbutanoyl)-6-(trifluoromethyl)-1H-indazol-3-yl)amino)(((S)-1-methoxypropan-2-yl)amino)methylene)-3,4-difluorobenzamide hydrochloride salt] | > 16 µM | –
42 | < 5 µM | CCOCCN/C(=N/C(=O)c1ccc(Cl)cc1)Nc1n[nH]c2cc(F)ccc12 [Compound A-82] | – | < 5 µM
43 | < 5 µM | CC(C)CNC(=NC(=O)c1ccc(O)cc1)Nc1n[nH]c2cc(Cl)ccc12 [Compound A-108] | – | 5 to 16 µM
44 | < 5 µM | CC(C)(C)CNC(=NC(=O)c1ccc(N2CCOCC2)nc1)Nc1n[nH]c2cc(C(F)(F)F)ccc12 [Compound A-27] | > 16 µM | –
45 | > 16 µM | CC(C)CN/C(=N/C(=O)c1ccc(F)c(F)c1)Nc1n[nH]c2cccc(F)c12 [Compound A-6] | – | > 16 µM
46 | < 5 µM | COC[C@H](C)N/C(=N/C(=O)c1ccc(Cl)cc1)Nc1n[nH]c2cc(F)ccc12 [Compound A-80] | – | < 5 µM
47 | < 5 µM | CC(C)(C)NC(=NC(=O)c1ccc(F)c(F)c1)Nc1n[nH]c2cc(Cl)c(F)cc12 [Compound A-100] | – | < 5 µM
48 | > 16 µM | CCOCCN/C(=N/C(=O)c1ccc2nonc2c1)Nc1n[nH]c2cc(F)ccc12 [Compound A-30] | – | > 16 µM
49 | > 16 µM | CC(C)(O)CN/C(=N/C(=O)c1ccc(O)cc1)Nc1n[nH]c2cc(F)ccc12 [Compound A-90] | – | > 16 µM
50 | > 16 µM | COC[C@H](C)N/C(=N/C(=O)c1ccc(F)c(F)c1)Nc1nn(C)c2cc(C(F)(F)F)ccc12 [Compound A-114] | > 16 µM | –
51 | > 16 µM | COC[C@H](C)N/C(=N/C(=O)c1ccc(F)c(F)c1)Nc1n[nH]c2cccnc12 [Compound A-48] | – | > 16 µM
52 | > 16 µM | O=C(/N=C(/NCCOCCO)Nc1n[nH]c2cc(C(F)(F)F)ccc12)c1ccc(Cl)c(F)c1 [Compound A-22] | – | > 16 µM
53 | < 5 µM | CCOCCCN/C(=N/C(=O)c1ccc(Cl)c(F)c1)Nc1n[nH]c2cc(C(F)(F)F)ccc12 [Compound A-15] | – | < 5 µM
54 | 5 to 16 µM | CC(C)(C)N/C(=N/C(=O)c1ccc(F)c(F)c1)Nc1n[nH]c2ccccc12 [Compound A-34] | – | 5 to 16 µM

Row | SMILES | IC50 (F1F0-ATPase) | EC50 (Ramos cells; Homo sapiens) | EC50 (Ramos cells)
55 | COC[C@H](C)N/C(=N/C(=O)c1ccc(F)c(F)c1)Nc1n[nH]c2cc(C(F)(F)F)ccc12 [Compound A-88] | > 16 µM | – | < 5 µM
56 | COC[C@H](C)N/C(=N/C(=O)c1ccc(F)c(F)c1)Nc1n[nH]c2cc(C(F)(F)F)ccc12 [Compound 3, (S)-3,4-Difluoro-N-(((1-methoxypropan-2-yl)amino)((6-(trifluoromethyl)-1H-indazol-3-yl)amino)methylene)benzamide] | < 5 µM | < 5 µM | –
